Assay results from ChEMBL document CHEMBL1201862, “PubChem BioAssay data set” (2004).
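Dose response: 5 concentrations. Exposure: 48 h. Format: 96-well plates. Endpoint: linear interpolation; highest concentration if not reached. Here, GI50 denotes the concentration required for 50% inhibition of growth.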 Calls of active or inactive are those of the source. Cut-off read from the data, not from the text of the source: active = GI50 up to about 1.1 µM and inactive = higher.

Columns and labels:
Assay in all cases: DTP human tumour cell line panel, 48 h
A498 = system: A498
A549 = system: A549
ACHN = system: ACHN
CCRF-CEM = system: CCRF-CEM
EKVX = system: EKVX
HCT-15 = system: HCT-15
Hs-578T = system: Hs-578T
IGROV-1 = system: IGROV-1
MCF7 = system: MCF7
MDA-MB-231 = system: MDA-MB-231
NCI-H23 = system: NCI-H23
NCI-H460 = system: NCI-H460
NCI-H522 = system: NCI-H522
OVCAR-3 = system: OVCAR-3
OVCAR-5 = system: OVCAR-5
SF-295 = system: SF-295
SF-539 = system: SF-539
SNB-75 = system: SNB-75
SW-620 = system: SW-620
TK-10 = system: TK-10

| Compound | GI50 (A498) | GI50 (A549) | GI50 (ACHN) | GI50 (CCRF-CEM) | GI50 (EKVX) | GI50 (HCT-15) [µM] | GI50 (Hs-578T) | GI50 (IGROV-1) | GI50 (MCF7) | GI50 (MDA-MB-231) | GI50 (NCI-H23) | GI50 (NCI-H460) | GI50 (NCI-H522) | GI50 (OVCAR-3) | GI50 (OVCAR-5) | GI50 (SF-295) | GI50 (SF-539) | GI50 (SNB-75) | GI50 (SW-620) | GI50 (TK-10) |
| --- | --- | --- | --- | --- | --- | --- | --- | --- | --- | --- | --- | --- | --- | --- | --- | --- | --- | --- | --- | --- |
| CC1=C(C(=O)NNC(=O)C(N)=O)CC(C(=O)NNC(=O)C(N)=O)=C(C)N1 | > 100 µM (inactive) | > 100 µM (inactive) | > 100 µM (inactive) | > 100 µM (inactive) | > 100 µM (inactive) | > 100 | > 100 µM (inactive) | > 100 µM (inactive) | > 100 µM (inactive) | > 100 µM (inactive) | > 100 µM (inactive) | > 100 µM (inactive) | > 100 µM (inactive) | > 100 µM (inactive) | > 100 µM (inactive) | > 100 µM (inactive) | > 100 µM (inactive) | > 100 µM (inactive) | > 100 µM (inactive) | > 100 µM (inactive) |
| N#CC1(C#N)C2=C(CCCC2)NC(c2ccc(Br)cc2)C1(C#N)C#N (configuration not stated) | 19 µM (inactive) | 17.2 µM (inactive) | 1.77 µM (inactive) | 0.226 µM (active) | 12.4 µM (inactive) | 2.42 | 17.1 µM (inactive) | 2.83 µM (inactive) | 5.32 µM (inactive) | 11.5 µM (inactive) | 12.3 µM (inactive) | 24.1 µM (inactive) | 0.927 µM (active) | 6.56 µM (inactive) | 9.95 µM (inactive) | 22.8 µM (inactive) | 14.2 µM (inactive) | 15.7 µM (inactive) | 1.31 µM (inactive) | 4.44 µM (inactive) |
| Cc1cccc(NC(=O)/C=C/c2ccccc2)c1C | > 100 µM (inactive) | > 100 µM (inactive) | > 100 µM (inactive) | > 100 µM (inactive) | > 100 µM (inactive) | > 100 | 37.7 µM (inactive) |  | > 100 µM (inactive) | > 100 µM (inactive) | > 100 µM (inactive) | > 100 µM (inactive) | > 100 µM (inactive) | > 100 µM (inactive) | > 100 µM (inactive) | > 100 µM (inactive) | > 100 µM (inactive) | 77.6 µM (inactive) | > 100 µM (inactive) | > 100 µM (inactive) |
| CCC1(c2ccc(N)cc2)CCC(=O)NC1=O (configuration not stated) [AMINOGLUTETHIMIDE] | 2310 µM (inactive) | 2880 µM (inactive) | 2490 µM (inactive) | 665 µM (inactive) | 3880 µM (inactive) | 2380 | 1520 µM (inactive) | 3450 µM (inactive) | 3010 µM (inactive) | 2610 µM (inactive) | 3240 µM (inactive) | 2580 µM (inactive) | 2640 µM (inactive) | 1810 µM (inactive) | > 4920 µM (inactive) | 1880 µM (inactive) | 3240 µM (inactive) | 1910 µM (inactive) | 3520 µM (inactive) | 2170 µM (inactive) |
| CCCCCCCCCCCC(=O)OC[C@H](C[As](=O)(O)O)OC(=O)CCCCCCCCCCC | 6.31 µM (inactive) | 6.92 µM (inactive) | 2.79 µM (inactive) | 13.7 µM (inactive) | 10.2 µM (inactive) | 8.26 | 2.78 µM (inactive) | 1.9 µM (inactive) | 8.75 µM (inactive) | 3.81 µM (inactive) | 5.98 µM (inactive) | 4.79 µM (inactive) | 2.25 µM (inactive) | 5.92 µM (inactive) | 18.2 µM (inactive) | 13.4 µM (inactive) | 14.2 µM (inactive) | 7.4 µM (inactive) | 14.4 µM (inactive) | 3.87 µM (inactive) |
| COc1cc(/C=C2/SC(c3ccccc3)N(c3cccc(Cl)c3)C2=O)cc(OC)c1OC (configuration not stated) | 81.7 µM (inactive) | 54.5 µM (inactive) | 19.3 µM (inactive) | 11.3 µM (inactive) | 41.3 µM (inactive) | 20.7 | 47 µM (inactive) |  | 24 µM (inactive) | 67 µM (inactive) | 22.9 µM (inactive) | 32.1 µM (inactive) | 11.5 µM (inactive) | 40.1 µM (inactive) | 29.9 µM (inactive) | 8.22 µM (inactive) | 22.5 µM (inactive) |  | 28.6 µM (inactive) | 33.7 µM (inactive) |
| NC(=O)N/N=C1\CC2C3CC4C2C4C13 (configuration not stated) | > 100 µM (inactive) | > 100 µM (inactive) | > 100 µM (inactive) | > 100 µM (inactive) | > 100 µM (inactive) | > 100 | > 100 µM (inactive) | > 100 µM (inactive) | > 100 µM (inactive) | > 100 µM (inactive) | > 100 µM (inactive) | > 100 µM (inactive) | > 100 µM (inactive) | > 100 µM (inactive) | > 100 µM (inactive) | > 100 µM (inactive) | > 100 µM (inactive) | > 100 µM (inactive) | > 100 µM (inactive) | > 100 µM (inactive) |
